Biological target: TYK2 (Homo sapiens, UniProt P29597)
Experiment: TYK2 protein degradation in NOMO-1 cells by immunoblotting
Assay type: cell-based
Design: endogenous in cells
Conditions: NOMO-1 cells
In short: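 NOMO-1 cells in RPMI 1640 with 10% FBS were exposed to compound at 0.1–1000 nM for 16 hours. TYK2 levels in RIPA lysates were measured by SDS-PAGE immunoblot with chemiluminescent detection and band densitometry.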

Sequence of TYK2 (P29597 whole entry): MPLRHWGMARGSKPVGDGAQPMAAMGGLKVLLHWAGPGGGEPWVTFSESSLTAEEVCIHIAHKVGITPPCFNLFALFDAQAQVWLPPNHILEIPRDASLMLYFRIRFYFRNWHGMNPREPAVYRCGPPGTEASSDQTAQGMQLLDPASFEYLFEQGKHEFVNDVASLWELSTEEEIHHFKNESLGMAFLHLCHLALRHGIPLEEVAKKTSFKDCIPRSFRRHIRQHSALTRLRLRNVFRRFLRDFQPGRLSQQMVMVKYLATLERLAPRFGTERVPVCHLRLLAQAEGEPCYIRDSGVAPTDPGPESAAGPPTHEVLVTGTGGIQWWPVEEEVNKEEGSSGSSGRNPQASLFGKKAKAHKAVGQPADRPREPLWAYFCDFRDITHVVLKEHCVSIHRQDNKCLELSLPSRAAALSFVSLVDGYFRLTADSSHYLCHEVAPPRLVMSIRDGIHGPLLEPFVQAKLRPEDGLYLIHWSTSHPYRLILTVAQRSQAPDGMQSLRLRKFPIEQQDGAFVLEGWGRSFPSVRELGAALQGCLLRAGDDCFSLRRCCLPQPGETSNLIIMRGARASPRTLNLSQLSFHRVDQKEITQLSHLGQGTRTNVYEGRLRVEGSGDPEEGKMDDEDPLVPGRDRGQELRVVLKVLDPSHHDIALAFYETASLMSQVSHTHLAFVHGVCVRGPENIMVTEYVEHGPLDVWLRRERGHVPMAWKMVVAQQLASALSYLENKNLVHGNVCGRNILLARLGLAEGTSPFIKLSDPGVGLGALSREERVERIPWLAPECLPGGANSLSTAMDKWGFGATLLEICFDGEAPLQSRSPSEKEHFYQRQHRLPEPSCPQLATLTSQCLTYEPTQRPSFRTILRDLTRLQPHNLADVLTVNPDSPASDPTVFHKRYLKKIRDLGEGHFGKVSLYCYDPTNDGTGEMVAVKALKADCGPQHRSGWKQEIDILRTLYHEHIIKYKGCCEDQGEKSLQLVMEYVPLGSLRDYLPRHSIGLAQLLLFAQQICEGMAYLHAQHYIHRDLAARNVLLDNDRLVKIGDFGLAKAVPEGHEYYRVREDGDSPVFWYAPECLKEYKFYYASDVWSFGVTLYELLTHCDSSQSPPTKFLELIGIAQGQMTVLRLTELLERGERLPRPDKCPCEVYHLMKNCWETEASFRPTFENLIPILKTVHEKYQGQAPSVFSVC

SMILES | TYK2 Degradation (NOMO-1, 100 nM) | TYK2 Degradation (NOMO-1, 10 nM)
CNC(=O)c1nnc(Nc2ccc(C#CC3CN(C(=O)CCCC(=O)N[C@H](C(=O)N4C[C@H](O)C[C@H]4C(=O)N[C@@H](C)c4ccc(-c5scnc5C)cc4)C(C)(C)C)C3)cn2)cc1Nc1cccc(-c2ncn(C)n2)c1OC [CPD-135, 6-((5-((1-(5-(((S)-1-((2S,4R)-4-Hydroxy-2-(((S)-1-(4-(4-methylthiazol-5-yl)phenyl)ethyl)carbamoyl)pyrrolidin-1-yl)-3,3-dimethyl-1-oxobutan-2-yl)amino)-5-oxopentanoyl)azetidin-3-yl)ethynyl)pyridin-2-yl)amino)-4-((2-methoxy-3-(1-methyl-1H-1,2,4-triazol-3-yl)phenyl)amino)-N-methylpyridazine-3-carboxamide] | A (A: ≥60% TYK2 degradation) | B (B: <60% TYK2 degradation, and >20% TYK2 degradation)
CNC(=O)c1nnc(Nc2ccc(CNC(=O)CCCC(=O)N[C@H](C(=O)N3C[C@H](O)C[C@H]3C(=O)N[C@@H](C)c3ccc(-c4scnc4C)cc3)C(C)(C)C)cn2)cc1Nc1cccc(-c2ncn(C)n2)c1OC [CPD-136, N1-((S)-1-((2S,4R)-4-Hydroxy-2-(((S)-1-(4-(4-methylthiazol-5-yl)phenyl)ethyl)carbamoyl)pyrrolidin-1-yl)-3,3-dimethyl-1-oxobutan-2-yl)-N5-((6-((5-((2-methoxy-3-(1-methyl-1H-1,2,4-triazol-3-yl)phenyl)amino)-6-(methylcarbamoyl)pyridazin-3-yl)amino)pyridin-3-yl)methyl)glutaramide] | A (A: ≥60% TYK2 degradation) | B (B: <60% TYK2 degradation, and >20% TYK2 degradation)
CNC(=O)c1nnc(Nc2ccc(C(=O)NCCCCCCC(=O)N[C@H](C(=O)N3C[C@H](O)C[C@H]3C(=O)N[C@@H](C)c3ccc(-c4scnc4C)cc3)C(C)(C)C)cn2)cc1Nc1cccc(-c2ncn(C)n2)c1OC [CPD-142, 6-((5-((7-(((S)-1-((2S,4R)-4-Hydroxy-2-(((S)-1-(4-(4-methylthiazol-5-yl)phenyl)ethyl)carbamoyl)pyrrolidin-1-yl)-3,3-dimethyl-1-oxobutan-2-yl)amino)-7-oxoheptyl)carbamoyl)pyridin-2-yl)amino)-4-((2-methoxy-3-(1-methyl-1H-1,2,4-triazol-3-yl)phenyl)amino)-N-methylpridazine-3-carboxamide] | A (A: ≥60% TYK2 degradation) | B (B: <60% TYK2 degradation, and >20% TYK2 degradation)
CNC(=O)c1nnc(Nc2ccc(C(=O)NCCCCCCCC(=O)N[C@H](C(=O)N3C[C@H](O)C[C@H]3C(=O)N[C@@H](C)c3ccc(-c4scnc4C)cc3)C(C)(C)C)cn2)cc1Nc1cccc(-c2ncn(C)n2)c1OC [CPD-143, 6-((5-((8-(((S)-1-((2S,4R)-4-hydroxy-2-(((S)-1-(4-(4-methylthiazol-5-yl)phenyl)ethyl)carbamoyl)pyrrolidin-1-yl)-3,3-dimethyl-1-oxobutan-2-yl)amino)-8-oxooctyl)carbamoyl)pyridin-2-yl)amino)-4-((2-methoxy-3-(1-methyl-1H-1,2,4-triazol-3-yl)phenyl)amino)-N-methylpyridazine-3-carboxamide] | A (A: ≥60% TYK2 degradation) | A (A: ≥60% TYK2 degradation)
CNC(=O)c1nnc(Nc2ccc(C(=O)NCCCCCCCCC(=O)N[C@H](C(=O)N3C[C@H](O)C[C@H]3C(=O)N[C@@H](C)c3ccc(-c4scnc4C)cc3)C(C)(C)C)cn2)cc1Nc1cccc(-c2ncn(C)n2)c1OC [CPD-144, 6-((5-((9-(((S)-1-((2S,4R)-4-hydroxy-2-(((S)-1-(4-(4-methylthiazol-5-yl)phenyl)ethyl)carbamoyl)pyrrolidin-1-yl)-3,3-dimethyl-1-oxobutan-2-yl)amino)-9-oxononyl)carbamoyl)pyridin-2-yl)amino)-4-((2-methoxy-3-(1-methyl-1H-1,2,4-triazol-3-yl)phenyl)amino)-N-methylpyridazine-3-carboxamide] | A (A: ≥60% TYK2 degradation) | A (A: ≥60% TYK2 degradation)
CNC(=O)c1nnc(Nc2ccc(N3CCN(C4CCN(C(=O)CCC(=O)N[C@H](C(=O)N5C[C@H](O)C[C@H]5C(=O)N[C@@H](C)c5ccc(-c6scnc6C)cc5)C(C)(C)C)CC4)CC3)cn2)cc1Nc1cccc(-c2ncn(C)n2)c1OC [CPD-145, 6-((5-(4-(1-(4-(((S)-1-((2S,4R)-4-Hydroxy-2-(((S)-1-(4-(4-methylthiazol-5-yl)phenyl)ethyl)carbamoyl)pyrrolidin-1-yl)-3,3-dimethyl-1-oxobutan-2-yl)amino)-4-oxobutanoyl)piperidin-4-yl)piperazin-1-yl)pyridin-2-yl)amino)-4-((2-methoxy-3-(1-methyl-1H-1,2,4-triazol-3-yl)phenyl)amino)-N-methylpyridazine-3-carboxamide] | B (B: <60% TYK2 degradation, and >20% TYK2 degradation) | 
CNC(=O)c1nnc(Nc2ccc(N3CCN(C4CCN(C(=O)CCCC(=O)N[C@H](C(=O)N5C[C@H](O)C[C@H]5C(=O)N[C@@H](C)c5ccc(-c6scnc6C)cc5)C(C)(C)C)CC4)CC3)cn2)cc1Nc1cccc(-c2ncn(C)n2)c1OC [CPD-146, 6-((5-(4-(1-(5-(((S)-1-((2S,4R)-4-Hydroxy-2-(((S)-1-(4-(4-methylthiazol-5-yl)phenyl)ethyl)carbamoyl)pyrrolidin-1-yl)-3,3-dimethyl-1-oxobutan-2-yl)amino)-5-oxopentanoyl)piperidin-4-yl)piperazin-1-yl)pyridin-2-yl)amino)-4-((2-methoxy-3-(1-methyl-1H-1,2,4-triazol-3-yl)phenyl)amino)-N-methylpyridazine-3-carboxamide] | A (A: ≥60% TYK2 degradation) | B (B: <60% TYK2 degradation, and >20% TYK2 degradation)

The next lines start with results.

TYK2 Degradation (NOMO-1, 100 nM) | SMILES | TYK2 Degradation (NOMO-1, 10 nM)
A (A: ≥60% TYK2 degradation) | CNC(=O)c1nnc(Nc2ccc(C(=O)NCC(=O)N[C@H](C(=O)N3C[C@H](O)C[C@H]3C(=O)N[C@@H](C)c3ccc(-c4scnc4C)cc3)C(C)(C)C)cn2)cc1Nc1cccc(-c2ncn(C)n2)c1OC [CPD-137, 6-((5-((2-(((S)-1-((2S,4R)-4-Hydroxy-2-(((S)-1-(4-(4-methylthiazol-5-yl)phenyl)ethyl)carbamoyl)pyrrolidin-1-yl)-3,3-dimethyl-1-oxobutan-2-yl)amino)-2-oxoethyl)carbamoyl)pyridin-2-yl)amino)-4-((2-methoxy-3-(1-methyl-1H-1,2,4-triazol-3-yl)phenyl)amino)-N-methylpyridazine-3-carboxamide] | C (C: ≤20% TYK2 degradation)
C (C: ≤20% TYK2 degradation) | CNC(=O)c1nnc(Nc2ccc(C(=O)NCCC(=O)N[C@H](C(=O)N3C[C@H](O)C[C@H]3C(=O)N[C@@H](C)c3ccc(-c4scnc4C)cc3)C(C)(C)C)cn2)cc1Nc1cccc(-c2ncn(C)n2)c1OC [CPD-138, 6-((5-((3-(((S)-1-((2S,4R)-4-Hydroxy-2-(((S)-1-(4-(4-methylthiazol-5-yl)phenyl)ethyl)carbamoyl)pyrrolidin-1-yl)-3,3-dimethyl-1-oxobutan-2-yl)amino)-3-oxopropyl)carbamoyl)pyridin-2-yl)amino)-4-((2-methoxy-3-(1-methyl-1H-1,2,4-triazol-3-yl)phenyl)amino)-N-methylpyridazine-3-carboxamide] | 
A (A: ≥60% TYK2 degradation) | CNC(=O)c1nnc(Nc2ccc(C(=O)NCCCC(=O)N[C@H](C(=O)N3C[C@H](O)C[C@H]3C(=O)N[C@@H](C)c3ccc(-c4scnc4C)cc3)C(C)(C)C)cn2)cc1Nc1cccc(-c2ncn(C)n2)c1OC [CPD-139, 6-((5-((4-(((S)-1-((2S,4R)-4-Hydroxy-2-(((S)-1-(4-(4-methylthiazol-5-yl)phenyl)ethyl)carbamoyl)pyrrolidin-1-yl)-3,3-dimethyl-1-oxobutan-2-yl)amino)-4-oxobutyl)carbamoyl)pyridin-2-yl)amino)-4-((2-methoxy-3-(1-methyl-1H-1,2,4-triazol-3-yl)phenyl)amino)-N-methylpyridazine-3-carboxamide] | C (C: ≤20% TYK2 degradation)
A (A: ≥60% TYK2 degradation) | CNC(=O)c1nnc(Nc2ccc(C(=O)NCCCCC(=O)N[C@H](C(=O)N3C[C@H](O)C[C@H]3C(=O)N[C@@H](C)c3ccc(-c4scnc4C)cc3)C(C)(C)C)cn2)cc1Nc1cccc(-c2ncn(C)n2)c1OC [CPD-140, 6-((5-((5-(((S)-1-((2S,4R)-4-Hydroxy-2-(((S)-1-(4-(4-methylthiazol-5-yl)phenyl)ethyl)carbamoyl)pyrrolidin-1-yl)-3,3-dimethyl-1-oxobutan-2-yl)amino)-5-oxopentyl)carbamoyl)pyridin-2-yl)amino)-4-((2-methoxy-3-(1-methyl-1H-1,2,4-triazol-3-yl)phenyl)amino)-N-methylpyridazine-3-carboxamide] | C (C: ≤20% TYK2 degradation)
A (A: ≥60% TYK2 degradation) | CNC(=O)c1nnc(Nc2ccc(C(=O)NCCCCCC(=O)N[C@H](C(=O)N3C[C@H](O)C[C@H]3C(=O)N[C@@H](C)c3ccc(-c4scnc4C)cc3)C(C)(C)C)cn2)cc1Nc1cccc(-c2ncn(C)n2)c1OC [CPD-141, 6-((5-((6-(((S)-1-((2S,4R)-4-Hydroxy-2-(((S)-1-(4-(4-methylthiazol-5-yl)phenyl)ethyl)carbamoyl)pyrrolidin-1-yl)-3,3-dimethyl-1-oxobutan-2-yl)amino)-6-oxohexyl)carbamoyl)pyridin-2-yl)amino)-4-((2-methoxy-3-(1-methyl-1H-1,2,4-triazol-3-yl)phenyl)amino)-N-methylpyridazine-3-carboxamide] | B (B: <60% TYK2 degradation, and >20% TYK2 degradation)

Reference: patent US20240059671A1, “TYROSINE KINASE 2 (TYK2) DEGRADATION COMPOUNDS AND METHODS OF USE” (CULLGEN (SHANGHAI), INC., priority 2020, published 2024)
